Here are results for 37 molecules from patent US10280163B2 (BeiGene, Ltd., priority 2015, dated 2019).

Where two headings read alike, the source gives them in different places. Where only a bound is given, the exact number is not on record here.

For assay [1], the target named is T1, cellular IDO1 in HeLa cells (Homo sapiens, UniProt P14902).
T1 construct: endogenous in cells; host or cells: HeLa cells (American Type Tissue Culture Collection), induced with human recombinant IFN-γ
As to the kind of experiment: HeLa cell-based IDO1 Kyn (kynurenine) production assay. The following applies: IFN-γ 100 ng/mL, 48 hours. The gist of the method:
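IFN-γ-induced HeLa cells (100 ng/mL) in phenol red-free DMEM with 0.4 mM L-Trp, compounds added together with IFN-γ, 48 h at 37 °C. Supernatant Kyn read at 480 nm after TCA precipitation and 4-(dimethylamino)benzaldehyde reaction. IC50 from four-parameter logistic fit.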

The target in assay [2] is T2, Recombinant TDO (Homo sapiens, UniProt P48775).
T2 construct: His tag (C); made in house; host or cells: E. coli
T2 sequence (P48775 whole entry): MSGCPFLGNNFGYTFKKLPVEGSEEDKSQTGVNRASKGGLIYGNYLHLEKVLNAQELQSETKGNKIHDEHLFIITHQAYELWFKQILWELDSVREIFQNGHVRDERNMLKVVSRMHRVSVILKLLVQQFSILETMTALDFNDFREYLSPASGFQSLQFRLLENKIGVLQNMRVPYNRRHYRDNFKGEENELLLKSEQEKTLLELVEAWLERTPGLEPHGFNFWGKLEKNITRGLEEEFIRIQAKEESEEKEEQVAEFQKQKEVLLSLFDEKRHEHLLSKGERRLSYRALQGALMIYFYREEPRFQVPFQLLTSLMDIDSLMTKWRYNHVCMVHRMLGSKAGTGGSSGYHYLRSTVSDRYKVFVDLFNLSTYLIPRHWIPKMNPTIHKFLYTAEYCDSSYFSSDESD
Put plainly: TDO enzymatic assay. To be noted: 100 nM TDO, 0.5 mM L-tryptophan, read-out: Enzyme IC50 (nM) TDO. The assay is classed as biochemical. As to the method:
Recombinant TDO was overexpressed and purified from E. coli cells with a C-terminal His tag. TDO enzymatic assay was performed using the same methodology as IDO1 enzymatic assay except that 100 nM TDO and 0.5 mM L-tryptophan (Km concentration) were used in the TDO assay.

For assay [3], the target named is T3, Recombinant IDO1 (Homo sapiens, UniProt P14902).
T3 construct: His tag (N); made in house; host or cells: E. coli
T3 sequence (P14902 whole entry): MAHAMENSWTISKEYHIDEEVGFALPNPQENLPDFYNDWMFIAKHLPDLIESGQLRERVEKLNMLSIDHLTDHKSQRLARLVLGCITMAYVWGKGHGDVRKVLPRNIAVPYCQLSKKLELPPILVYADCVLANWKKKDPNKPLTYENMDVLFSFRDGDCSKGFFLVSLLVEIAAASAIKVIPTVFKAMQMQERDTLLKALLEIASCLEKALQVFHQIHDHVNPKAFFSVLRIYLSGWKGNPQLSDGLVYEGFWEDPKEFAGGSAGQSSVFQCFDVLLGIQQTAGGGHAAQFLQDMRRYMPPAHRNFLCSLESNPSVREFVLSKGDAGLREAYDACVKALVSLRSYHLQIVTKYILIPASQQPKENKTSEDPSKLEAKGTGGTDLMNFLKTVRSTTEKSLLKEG
Put plainly: IDO1 enzymatic assay. The assay is classed as biochemical. To be noted: 50 nM IDO1, 1.3 mM D-tryptophan, read-out: Enzyme IC50 (nM) IDO1. The gist of the method: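 N-terminally His-tagged enzyme from E. coli (50 nM) was incubated with compound, 1.3 mM D-tryptophan, 5 mM ascorbate, 6.25 μM methylene blue and 0.4 mg/mL catalase in 50 mM potassium phosphate pH 7.5, 0.1% BSA for 1.5 h at 24° C. N′-formylkynurenine formation was followed at 321 nm for 1 h; IC50 from rate slopes.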

[4] abbreviates: Table 1, 5-substituted imidazo[1,5-a]pyridines.
Where [5] appears, read: Table 2, 8-substituted imidazo[1,5-a]pyridines.

T1 sequence (P14902 whole entry): as above

For the molecule `OC(c1cccc2cncn12)C1CCCCC1` (single isomer, unassigned) [Example A001a], in assay [1] (setting [4]), the EC50 was over 10000 nM. In addition, the IC50 came out at 610 nM in assay [2] (setting [4]) and 41 nM in assay [3] (setting [4]).
In assay [1] (setting [4]), `OC(CC1CCCCC1)c1cc(Cl)cc2cncn12` (single isomer, unassigned) [Example A102a] returned an EC50 of 346 nM. Besides, the IC50 in assay [2] (setting [4]) turned out to be 73 nM; in assay [3] (setting [4]) it was 15 nM.
On to `OC(CC1CCCCC1)c1cc(Cl)cc2cncn12` (single isomer, unassigned) [Example A102b], for which the concentration for a half-maximal effect (EC50) in assay [1] (setting [4]) is over 10000 nM. Besides, the values for the concentration for half-maximal inhibition (IC50) in assay [2] (setting [4]) and in assay [3] (setting [4]) were 1200 nM and 510 nM, respectively.
In assay [1] (setting [4]), `OC(c1cc(C(F)(F)F)cc2cncn12)C1CCCCC1` (single isomer, unassigned) [Example A109a] had an EC50 of 2100 nM. Moreover, the results for the half-inhibitory concentration (IC50) in assay [2] (setting [4]) and in assay [3] (setting [4]) were 97 nM and 15 nM, respectively.
In assay [1] (setting [4]), `OC(c1cc(C(F)(F)F)cc2cncn12)C1CCCCC1` (single isomer, unassigned) [Example A109b] came in with a concentration for a half-maximal effect (EC50) of over 10000 nM. The values for the IC50 in assay [2] (setting [4]) and in assay [3] (setting [4]) were 1200 nM and 1400 nM, respectively.
On the same counts, the results for `OC(CC1CCCCC1)c1cc(C(F)(F)F)cc2cncn12` (single isomer, unassigned) [Example A114a] are over 10000 nM, 2600 nM and 890 nM.
In the same order, the values of `OC(CC1CCCCC1)c1cc(C(F)(F)F)cc2cncn12` (single isomer, unassigned) [Example A114b] are 5430 nM, 170 nM and 74 nM.
On the same counts, the results for `OC(c1c(Cl)ccc2cncn12)C1CCCCC1` (single isomer, unassigned) [Example A116a] are 270 nM, 610 nM and 11 nM.
On to `OC(c1c(Cl)ccc2cncn12)C1CCCCC1` (single isomer, unassigned) [Example A116b], for which the 50% effective concentration (EC50) in assay [1] (setting [4]) is over 10000 nM. Also, the concentration for half-maximal inhibition (IC50) in assay [2] (setting [4]) was found to be 67000 nM; in assay [3] (setting [4]), 4800 nM.
`OC(CC1CCCCC1)c1c(Cl)ccc2cncn12` (single isomer, unassigned) [Example A117a] yielded an EC50 in assay [1] (setting [4]) of 92 nM. Besides, the IC50 in assay [2] (setting [4]) was 4100 nM; in assay [3] (setting [4]), 11 nM.
In the same order, the values of `OC(CC1CCCCC1)c1c(Cl)ccc2cncn12` (single isomer, unassigned) [Example A117b] are over 10000 nM, 35000 nM and 1600 nM.
In assay [1] (setting [4]), `OC(c1c(Br)ccc2cncn12)C1CCCCC1` (single isomer, unassigned) [Example A118a] showed an EC50 of 346 nM. Besides, the results for the 50% inhibitory concentration (IC50) in assay [2] (setting [4]) and in assay [3] (setting [4]) were 1700 nM and 14 nM, respectively.
As to `OC(c1c(Br)ccc2cncn12)C1CCCCC1` (single isomer, unassigned) [Example A118b], in assay [1] (setting [4]), the EC50 is over 10000 nM. The results for the concentration for half-maximal inhibition (IC50) in assay [2] (setting [4]) and in assay [3] (setting [4]) were 53000 nM and 1600 nM, respectively.
On the same counts, the results for `OC(CC1CCCCC1)c1c(Br)ccc2cncn12` (single isomer, unassigned) [Example A119a] are 66 nM, 14000 nM and 14 nM.
On the same counts, the results for `OC(CC1CCCCC1)c1c(Br)ccc2cncn12` (single isomer, unassigned) [Example A119b] are 9430 nM, 38000 nM and 1300 nM.
On the same counts, the results for `OC(CC1CCCCC1)c1c(I)ccc2cncn12` (single isomer, unassigned) [Example A124a] are 92 nM, 8800 nM and 9 nM.
`OC(CC1CCCCC1)c1c(I)ccc2cncn12` (single isomer, unassigned) [Example A124b]: the EC50 in assay [1] (setting [4]) is over 10000 nM. For the same molecule, the 50% inhibitory concentration (IC50) in assay [2] (setting [4]) was found to be 95000 nM; in assay [3] (setting [4]), 1100 nM.
In the same order, the values of `OC(c1c(I)ccc2cncn12)C1CCCCC1` (single isomer, unassigned) [Example A125a] are 138 nM, 4500 nM and 15 nM.
`OC(c1c(I)ccc2cncn12)C1CCCCC1` (single isomer, unassigned) [Example A125b] displayed an EC50 in assay [1] (setting [4]) of over 10000 nM. Moreover, the values for the IC50 in assay [2] (setting [4]) and in assay [3] (setting [4]) were 46000 nM and 12000 nM, respectively.
On the same counts, the results for `OC(c1c(C2CC2)ccc2cncn12)C1CCCCC1` (single isomer, unassigned) [Example A126a] are 156 nM, 14000 nM and 36 nM.
For `OC(CC1CCCCC1)c1c(C2CC2)ccc2cncn12` (single isomer, unassigned) [Example A139a], the values for the IC50 in assay [2] (setting [4]) and in assay [3] (setting [4]) were 1800 nM and 11 nM, respectively.
In the same order, the values of `OC(CC1CCCCC1)c1c(C2CC2)ccc2cncn12` (single isomer, unassigned) [Example A139b] are 13000 nM and 4500 nM.
On the same counts, the results for `O[C@@H](c1cc(Cl)cc2cncn12)C1CCCCC1` [Example A101b, (R)-(7-chloroimidazo[1,5-a]pyridin-5-yl)(cyclohexyl)methanol] are 230 nM and 890 nM.
In the same order, the values of `OC(CC1CCCCC1)c1cc(C(F)(F)F)cc2cncn12` (stereo not shown) [Example A114, 2-cyclohexyl-1-(7-(trifluoromethyl)imidazo[1,5-a]pyridin-5-yl)ethan-1-ol] are 420 nM and 260 nM.
Turning to `OC(c1c(C(F)(F)F)ccc2cncn12)C1CC1` (stereo not shown) [Example A132, cyclopropyl(6-(trifluoromethyl)imidazo[1,5-a]pyridin-5-yl)methanol], the values for the IC50 in assay [2] (setting [4]) and in assay [3] (setting [4]) were 75000 nM and 210 nM, respectively.
On the same counts, the results for `OC(c1c(Cl)c(Br)cc2cncn12)C1CC1` (stereo not shown) [Example A150, (7-bromo-6-chloroimidazo[1,5-a]pyridin-5-yl)(cyclooropyl)methanol] are 200 nM and 130 nM.
In the same order, the values of `OC(c1c(Cl)c(C(F)(F)F)cc2cncn12)C1CCCCC1` (stereo not shown) [Example A155, (6-chloro-7-(trifluoromethyl)imidazo[1,5-a]pyridin-5-Yl)(cyclohexyl)methanol] are 1600 nM and 1000 nM.
For `OC(c1cccn2cncc12)C1CCCC1` (stereo not shown) [Example B002, Cyclopentyl(imidazo[1,5-a]pyridin-8-yl)methanol], the results for the IC50 in assay [2] (setting [5]) and in assay [3] (setting [5]) were 810 nM and 2000 nM, respectively.
In the same order, the values of `OC(c1ccccc1)c1cccn2cncc12` (stereo not shown) [Example B004, Imidazo[1,5-a]pyridin-8-yl(phenyl)methanol] are 3900 nM and 17000 nM.
In the same order, the values of `OC(c1cccn2cncc12)C1CCCCCC1` (stereo not shown) [Example B005, Cycloheptyl(imidazo[1,5-a]pyridin-8-yl)methanol] are 740 nM and 990 nM.
For the molecule `OCC1(C(O)c2c(C3CC3)ccn3cncc23)CCCCC1` (stereo not shown) [Example B136, (7-Cyclopropylimidazo[1,5-a]pyridin-8-yl)(1-(hydroxymethyl)cyclohexyl)methanol], the EC50 in assay [1] (setting [5]) was 286 nM. Also, the half-inhibitory concentration (IC50) in assay [3] (setting [5]) was found to be 760 nM.
In the same order, the values of `CCOC(COCC1(C(O)c2c(C3CC3)ccn3cncc23)CCCCC1)OCC` (stereo not shown) [Example B137, (7-Cyclopropylimidazo[1,5-a]pyridin-8-yl)(1-((2,2-diethoxyethoxy)methyl)cyclohexyl)methanol] are 3290 nM and 2200 nM.
On the same counts, the results for `O=C(O)C1CCCC(C(O)c2c(C3CC3)ccn3cncc23)C1` (stereo not shown) [Example B138, 3-((7-Cyclopropylimidazo[1,5-a]pyridin-8-yl)(hydroxy)methyl)cyclohexane-1-carboxylic acid] are over 10000 nM and 1000 nM.
On the same counts, the results for `OC(c1c(C2CC2)ccn2cncc12)C1CC2CC2C1` (stereo not shown) [Example B139, bicyclo[3.1.0]hexan-3-yl(7-cyclopropylimidazo[1,5-a]pyridin-8-yl)methanol] are 199 nM and 85 nM.
`OC(c1c(C2CC2)ccn2cncc12)C1CCC2CC2C1` (stereo not shown) [Example B140, bicyclo[4.1.0]heptan-3-yl(7-cyclopropylimidazo[1,5-a]pyridin-8-yl)methanol] registered an EC50 in assay [1] (setting [5]) of 147 nM. In addition, the 50% inhibitory concentration (IC50) in assay [3] (setting [5]) was determined as 71 nM.
On the same counts, the results for `OC(c1c(C2CC2)ccn2cncc12)C1C=CCCC1` (stereo not shown) [Example B141, cyclohex-2-en-1-yl(7-cyclopropylimidazo[1,5-a]pyridin-8-yl)methanol] are 1700 nM and 45 nM.
On the same counts, the results for `OC1CC2CC1CC2C(O)c1c(C2CC2)ccn2cncc12` (stereo not shown) [Example B142, 5-((7-cyclopropylimidazo[1,5-a]pyridin-8-yl)(hydroxy)methyl)bicyclo[2.2.1]heptan-2-ol] are 6320 nM and 1300 nM.

By EC50 is commonly meant the concentration that produces a half-maximal response. Low readings indicate higher potency in that assay, high ones lower potency in that assay. What is called IC50 is the point on the concentration scale where inhibition reaches its midpoint.
